Experimental data published in patent US20080031866A1, “METHOD FOR MODULATING THE PHARMACOKINETICS AND METABOLISM OF A THERAPEUTIC AGENT” (priority 2006, published 2008).
Like-named read-outs stand apart in the source and are kept apart here.

Legend:
[1] = system: β-glucuronidase derived from E. Coli; assay: In vitro incubation of Glu A and Glu B with β-glucuronidase; type: in vitro ADME; conditions: for Glucuronide remaining: 500 μM glucuronide, β-glucuronidase, 37° C.; for Stability in control samples without β-glucuronidase: control incubation, no enzyme
Description: β-glucuronidase derived from E. Coli, glucurase at a concentration of 5,000 units/ml and bovine serum albumin were obtained from Sigma (St. Louis, Mo.). Glu A and Glu B were incubated at a concentration of 500 μM with β-glucuronidase ([…]) in 100 mM potassium acetate buffer solution in a 0.5 ml filter tube. The incubations were run in triplicate.
To each filter tube, 65 μl of 100 mM potassium acetate buffer, 5 μl of bovine serum albumin, and 100 μl of glucurase were added (100 mM potassium acetate was added to the control wells). The pH was adjusted to either pH 5.0 using 1N potassium hydroxide. 10 μl of 10 mM GluA or GluB were then added and the filter tubes were incubated for 30 minutes, 60 minutes or 18 hours at 37° C. Following incubation 20 μl of acetonitrile was added to the filter tubes and the filter tubes were centrifuged. The resulting filtrate was then analyzed by HPLC.
Glu A (500 μM) and Glu B (500 μM) were incubated with β-glucuronidase at 37° C. in pH 5.0 and pH 7.4 buffers. The pH 7.4 buffer is representative of the in vivo pH range in the GI tract. The results of each treatment are shown in Tables 5 (pH 5.0) and Table 6 (pH 7.4).
Glu A was prepared fresh in these experiments. A time-dependent incubation of Glu A and Glu B was carried out for 2, 4 and 6 hours.

[2] = Intracolonic dosing with and without β-glucuronidase, catheterized rat; type: in vivo; conditions: for AUC / Cmax / concentration at 0 h / concentration at 0.25 h / concentration at 0.5 h / concentration at 1 h / concentration at 2 h / concentration at 3 h / concentration at 4 h / concentration at 5 h / concentration at 6 h: male, Sprague Dawley, rat, plasma; for AUC / Cmax / concentration at 0 h / concentration at 0.25 h / concentration at 0.5 h / concentration at 1 h / concentration at 2 h / concentration at 3 h / concentration at 4 h / concentration at 5 h / concentration at 6 h / AUC average ± standard deviation 0 to 6 hours: 10 mg/kg, rats N=6; for AUC: read-out: AUC average ± standard deviation 0 to 6 hours; for Cmax: read-out: Cmax average ± standard deviation; for concentration at 0 h / concentration at 0.25 h / concentration at 0.5 h / concentration at 1 h / concentration at 2 h / concentration at 3 h / concentration at 4 h / concentration at 5 h / concentration at 6 h: other: intracolonic
Description: A catheterized rat model was used in which the agent alone or agent and β-glucuronidase enzyme was administered intraduodenally or intracolonically. The intraduodenal and intracolonic dosing was intended to prevent the potential for loss of enzymatic activity when orally dosing the β-glucuronidase (e.g. by degradation in the stomach). […]
For the oral gavage dosing, Compound 1 was prepared in neat PEG-400. For the intraduodenal and intracolonic dosing solutions, Compound 1 was added to neat Tween 80, the mixture was sonicated for thirty minutes at 45° C. until Compound 1 was completely dissolved and then deionized (DI) water was added to form a solution consisting of 20% Tween 80 and 80% DI water by weight.
For the oral enzyme solutions, β-glucuronidase was added to the final formulation at a concentration of 57,600 units/ml.
For the intraduodenal and intracolonic dosing, male Sprague Dawley rats weighing 300-400 g were purchased from Charles River Labs. All rat experiments were conducted under approved animal protocols. The rats were catheterized at Charles River Labs and had one or more of the following chronic catheters for dosing and sampling: jugular/carotid, duodenal, and colonic. Rats were limited to only one GI catheter and one vascular catheter. For IV dosing, rats were purchased with jugular and carotid catheters for dosing in the jugular catheter and blood sampling through the carotid catheter. For intraduodenal/intracolonic dosing, rats had one of the GI catheters for dosing and a carotid catheter for blood sampling.
The surgeries were done two weeks prior to start of testing. Rats were fed 4 hours post dose administration. All rats were dosed without anesthesia and sacrificed at the end of the study.
A quantitative method for determining the amount of (6,7-dimethoxy-2,4-dihydro-indeno[1,2-c]pyrazol-3-yl)-(3-fluoro-phenyl)-amine Compound 1 and its major metabolites, glucuronide A (Cpd 1-GluA) and glucuronide B (Cpd 1-GluB) (see Scheme A) in rat plasma was developed using phenacetin as an internal standard. [drawing 1]
The two glucuronide conjugates were prepared and purified to permit accurate quantification of the levels of intact parent Compound 1 versus Cpd 1-GluA and Cpd 1-GluB. Each standard curve for Compound 1, Cpd 1-GluA, and Cpd 1-GluB generated from rat plasma included ten concentration levels. […] The quantitative procedure for each sample included: sample preparation, HPLC separation and mass spectrometry detection.
The rat plasma was prepared using protein precipitation techniques. Reference standards and quality control samples in rat plasma for Compound 1 were transferred to a 96 deep-well plate. The precipitation solution contained 100 ng/ml of internal standard in acetonitrile. 300 μl of precipitation solution were added to 100 μl of each standard, quality control and plasma sample. Samples were vortexed for 10 mins, then centrifuged at 4500 RPM for 10 mins. 10 μl of each sample were injected for LC/MS/MS analysis.
The HPLC column chosen for the bioanalysis was purchased from Thermo Electron (Hypersil BetaBasic C18, 5 cm×2.1 mm). The eluting solvents were composed of Solvent A: 0.1% formic acid in H2O and Solvent B: 0.1% formic acid in acetonitrile. A step gradient was used and flow rate was 300 μl/min. The total run time was 3.2 mins. Solvent B was increased from 35% at 0 min to 75% at 2.1 mins and decreased back to 35% at 2.2 mins. The retention times for Compound 1, phenacetin, Cpd 1-GluA and Cpd 1-GluB were 1.1 min, 0.9 min, 1.3 min, and 1.6 min, respectively.
API3000 with a Turbo Ionspray interface from Applied Biosystems was used for the detection of Compound 1, the internal standard and major metabolites. Electrospray ionization was performed in the positive ion mode heated nebulizer with a temperature of 300° C. LC/MS/MS chromatograms were acquired in MRM (multiple reaction mode). […]

Stability in DMSO = type: physicochemical; conditions: especially after freezing and thawing
[3] = Compound 1 10 mg/kg intracolonic with β-glucuronidase
[4] = Compound 1 10 mg/kg intracolonic without enzyme

SMILES	Glucuronide remaining ([1]; pH 5.0, 0 hr)	Glucuronide remaining ([1]; pH 5.0, 0.5 hrs)	Glucuronide remaining ([1]; pH 5.0, 1 hr)	Glucuronide remaining ([1]; pH 7.4, 0 hr)	Glucuronide remaining ([1]; pH 7.4, 2 hrs)	Glucuronide remaining ([1]; pH 7.4, 4 hrs)	Stability in control samples without β-glucuronidase [1]	AUC [2, 3] [ng·h/mL]	Cmax [2, 3] [ng/mL]	AUC [2, 4] [ng·h/mL]	Cmax [2, 4] [ng/mL]	concentration at 0 h [2, 3] [ng/mL]	concentration at 0.25 h [2, 3] [ng/mL]	concentration at 0.5 h [2, 3] [ng/mL]	concentration at 1 h [2, 3] [ng/mL]	concentration at 2 h [2, 3] [ng/mL]	concentration at 3 h [2, 3] [ng/mL]	concentration at 4 h [2, 3] [ng/mL]	concentration at 5 h [2, 3] [ng/mL]	concentration at 6 h [2, 3] [ng/mL]	further results
COc1cc2c(cc1OC)-c1n[nH]c(N(c3cccc(F)c3)[C@H]3O[C@@H](C(=O)O)[C@H](O)[C@@H](O)[C@@H]3O)c1C2 [Cpd 1-GluA]	100% Glu-A	60% Glu-A	34% Glu-A	100% Glu-A	67% Glu-A	48% Glu-A	stable	1770	755 ± 509	5060	1550 ± 1050	0	6450	4820	3860	812 ± 426	462 ± 208	480 ± 107	420 ± 74.1	462 ± 113	Glucuronide remaining ([1]; pH 5.0, 18 hrs): 0% Glu-A; Glucuronide remaining ([1]; pH 7.4, 6 hrs): 23% Glu-A; concentration at 0 h [2, 4]: 0 ng/mL; concentration at 0.25 h [2, 4]: 666 ± 198 ng/mL; concentration at 0.5 h [2, 4]: 6450 ng/mL; concentration at 1 h [2, 4]: 4820 ng/mL; concentration at 2 h [2, 4]: 3860 ng/mL; concentration at 3 h [2, 4]: 66.6 ± 42 ng/mL; concentration at 4 h [2, 4]: 88.2 ± 53.9 ng/mL; concentration at 5 h [2, 4]: 83.1 ± 23.2 ng/mL; concentration at 6 h [2, 4]: 90.2 ± 28.1 ng/mL; AUC intracolonic relative to intraduodenal ([2]; no enzyme present): 4.3 times; AUC average ± standard deviation 0 to 6 hours [2, 3]: 1,767.6 ± 1,282.3 ng · hr/ml; AUC average ± standard deviation 0 to 6 hours [2, 4]: 5061.9 ± 1,656.0 ng · hr/ml; Stability in DMSO (Stability in DMSO): relatively unstable
COc1cc2c(cc1OC)-c1nn(C3OC(C(=O)O)C(O)C(O)C3O)c(Nc3cccc(F)c3)c1C2 (stereo in doubt) [Cpd 1-GluB]	100% Glu-B	100% Glu-B	100% Glu-B	100% Glu-B	100% Glu-B	100% Glu-B	stable	176 ± 123	79.4 ± 47.3	499 ± 137	140 ± 56.9	0	508 ± 342	503 ± 363	676 ± 586	275 ± 260	271 ± 181	194 ± 165	146 ± 84.4	119 ± 108	concentration at 0 h [2, 4]: 0 ng/mL; concentration at 0.25 h [2, 4]: 70.2 ± 29.3 ng/mL; concentration at 0.5 h [2, 4]: 72.4 ± 28.2 ng/mL; concentration at 1 h [2, 4]: 51.2 ± 24.9 ng/mL; concentration at 2 h [2, 4]: 13.5 ± 5.5 ng/mL; concentration at 3 h [2, 4]: 7.1 ± 5 ng/mL; concentration at 4 h [2, 4]: 9.6 ± 6.7 ng/mL; concentration at 5 h [2, 4]: 9.2 ± 4.1 ng/mL; concentration at 6 h [2, 4]: 10.4 ± 4 ng/mL; AUC average ± standard deviation 0 to 6 hours [2, 3]: 175.9 ± 123.1 ng·h/mL; AUC average ± standard deviation 0 to 6 hours [2, 4]: 498.7 ± 137.2 ng·h/mL
